From ChEMBL document CHEMBL4382286, “Nongenotoxic 3-Nitroimidazo[1,2-a]pyridines Are NTR1 Substrates That Display Potent in Vitro Antileishmanial Activity” (ACS Med Chem Lett, 2019)
pIC50: −log10 of the molar value.

Assays:
[1] = Cytotoxicity against human HepG2 cells after 72 hrs by MTT assay; type: cell-based
Leishmania donovani [2] = test: Antileishmanial activity against intracellular amastigote stage of Leishmania donovani infected in human THP1 cells after 120 hrs by giemsa staining based microscopic analysis; type: functional, organism-based; details: THP-1, 120 h
Leishmania infantum [3] = test: Antileishmanial activity against Leishmania infantum axenic amastigotes after 48 hrs by steady-glo luciferase reporter gene assay; type: functional, organism-based
[4] = system: Trypanosoma brucei brucei; test: Antitrypanosomal activity against trypomastigote stage of Trypanosoma brucei brucei AnTat 1.9 assessed as decrease in parasite viability after 69 hrs by Alamar Blue assay; type: functional, organism-based; details: AnTat 1.9, 69 h
[5] = Aqueous solubility of the compound at >12.5 uM; type: physicochemical; details: buffer
[6] = Mutagenicity in Salmonella typhimurium TA97a at 62.5 to 625 uM preincubated for 1 hr followed by addition of molten top agar and measured 48 hrs post dark incubation by Ames test; type: toxicity; details: salmonella enterica subsp. enterica serovar typhimurium
[7] = Mutagenicity in Salmonella typhimurium TA98 at 62.5 to 625 uM preincubated for 1 hr followed by addition of molten top agar and measured 48 hrs post dark incubation by Ames test; type: toxicity; details: salmonella enterica subsp. enterica serovar typhimurium
[8] = Mutagenicity in Salmonella typhimurium TA100 at 62.5 to 625 uM preincubated for 1 hr followed by addition of molten top agar and measured 48 hrs post dark incubation by Ames test; type: toxicity; details: salmonella enterica subsp. enterica serovar typhimurium
[9] = Mutagenicity in Salmonella typhimurium TA102 at 62.5 to 625 uM preincubated for 1 hr followed by addition of molten top agar and measured 48 hrs post dark incubation by Ames test; type: toxicity; details: salmonella enterica subsp. enterica serovar typhimurium
[10] = Mutagenicity in Salmonella typhimurium TA97a at 62.5 to 625 uM preincubated for 1 hr with S9 mix followed by addition of molten top agar and measured 48 hrs post dark incubation by Ames test; type: toxicity, subcellular; details: salmonella enterica subsp. enterica serovar typhimurium, s9, 48 h
[11] = Mutagenicity in Salmonella typhimurium TA98 at 62.5 to 625 uM preincubated for 1 hr with S9 mix followed by addition of molten top agar and measured 48 hrs post dark incubation by Ames test; type: toxicity, subcellular; details: salmonella enterica subsp. enterica serovar typhimurium, s9, 48 h
[12] = Mutagenicity in Salmonella typhimurium TA100 at 62.5 to 625 uM preincubated for 1 hr with S9 mix followed by addition of molten top agar and measured 48 hrs post dark incubation by Ames test; type: toxicity, subcellular; details: salmonella enterica subsp. enterica serovar typhimurium, s9, 48 h
[13] = Mutagenicity in Salmonella typhimurium TA102 at 62.5 to 625 uM preincubated for 1 hr with S9 mix followed by addition of molten top agar and measured 48 hrs post dark incubation by Ames test; type: toxicity, subcellular; details: salmonella enterica subsp. enterica serovar typhimurium, s9, 48 h
[14] = Electrochemical behavior of the compound assessed as redox potential corrected toward normal hydrogen electrode by cyclic voltammetry
[15] = Aqueous solubility of the compound at >62.5 uM; type: physicochemical; details: buffer
Leishmania donovani [16] = test: Antileishmanial activity against wild type promastigote stage of Leishmania donovani MHOM/SD/62/1S-CL2D after 72 hrs by resazurin dye based fluorescence assay; type: functional, organism-based
[17] = Substrate activity at NTR1 in promastigote stage of Leishmania donovani MHOM/SD/62/1S-CL2D assessed as inhibition of parasite growth after 72 hrs by resazurin dye based assay
[18] = Substrate activity at NTR2 in promastigote stage of Leishmania donovani MHOM/SD/62/1S-CL2D assessed as inhibition of parasite growth after 72 hrs by resazurin dye based assay
Leishmania donovani [19] = test: Selectivity ratio of IC50 for wild type promastigote stage of Leishmania donovani MHOM/SD/62/1S-CL2D to IC50 for NTR1 in promastigote stage of Leishmania donovani MHOM/SD/62/1S-CL2D
Leishmania donovani [20] = test: Selectivity ratio of IC50 for NTR2 in promastigote stage of Leishmania donovani MHOM/SD/62/1S-CL2D to IC50 for NTR1 in promastigote stage of Leishmania donovani MHOM/SD/62/1S-CL2D
Leishmania donovani [21] = test: Antileishmanial activity against promastigote stage of Leishmania donovani MHOM/IN/00/DEVI after 72 hrs by MTT assay; type: functional, organism-based
[22] = Solubility of the compound in RPMI medium at 4 to 6 uM; type: physicochemical
[23] = Selectivity index, ratio of CC50 for human HepG2 cells to IC50 for promastigote stage of Leishmania donovani MHOM/IN/00/DEVI; type: toxicity; details: read-out: Ratio CC50/IC50
Leishmania major [24] = test: Antileishmanial activity against promastigote stage of Leishmania major MHOM/IL/81/Friedlin after 72 hrs by MTT assay; type: functional, organism-based
Leishmania major [25] = test: Antileishmanial activity against intracellular amastigote stage of Leishmania major infected in human THP1 cells after 120 hrs by giemsa staining based microscopic analysis; type: functional, organism-based; details: THP-1, 120 h
Leishmania donovani [26] = test: Potency index, ratio of miltefosine IC50 to test compound IC50 for intracellular amastigote stage of Leishmania donovani infected in human THP1 cells; type: functional
Leishmania infantum [27] = test: Potency index, ratio of fexinidazole IC50 to test compound IC50 for Leishmania infantum axenic amastigotes; type: functional
Trichomonas vaginalis = test: Antiprotozoal activity against Trichomonas vaginalis TVR87 measured after 48 hrs by trypan blue assay; type: functional, organism-based
Plasmodium falciparum = test: Antiplasmodial activity against chloroquine/proguanil/pyrimethamine-resistant synchronized stage of Plasmodium falciparum K1 after 72 hrs by SYBR green1 staining based spectrophotometric method; type: functional, organism-based; details: K1, 72 h
Trypanosoma cruzi = test: Antitrypanosomal activity against Trypanosoma cruzi MHOM/BR/78/Silvio cloneX10/7A epimastigotes measured after 4 days by resazurin dye based fluorescence assay; type: functional, organism-based; details: 96 h
[28] = Cytotoxicity against human THP1 cells after 72 hrs by MTT assay; type: cell-based; details: THP-1 cells
[29] = Solubility of the compound in RPMI medium at >62.5 uM; type: physicochemical
[30] = Half life in CD-1 mouse hepatic microsomes in presence of NADPH by LC-MS/MS analysis; type: ADME, Microsome; details: liver microsomes
[31] = Drug metabolism in CD-1 mouse hepatic microsomes assessed as 6-chloro-8-(4-chlorophenylsulfinyl)-3-nitro-2-(phenylsulfonylmethyl)imidazo[1,2-a]pyridine formation in presence of NADPH by LC-MS/MS analysis; type: ADME, Liver, Microsome
HepG2 = test: Genotoxicity in human HepG2 cells at 1 to 20 uM after 2 to 72 hrs by comet assay; type: toxicity, cell-based; details: hepg2, 20 µM
Albumin [32] = biological target: T1, Albumin (Homo sapiens, UniProt P02768); test: Binding affinity to human serum albumin after 4 hrs by LC-MS analysis; type: ADME; details: read-out: PB (converted)
T1 sequence (P02768 whole entry): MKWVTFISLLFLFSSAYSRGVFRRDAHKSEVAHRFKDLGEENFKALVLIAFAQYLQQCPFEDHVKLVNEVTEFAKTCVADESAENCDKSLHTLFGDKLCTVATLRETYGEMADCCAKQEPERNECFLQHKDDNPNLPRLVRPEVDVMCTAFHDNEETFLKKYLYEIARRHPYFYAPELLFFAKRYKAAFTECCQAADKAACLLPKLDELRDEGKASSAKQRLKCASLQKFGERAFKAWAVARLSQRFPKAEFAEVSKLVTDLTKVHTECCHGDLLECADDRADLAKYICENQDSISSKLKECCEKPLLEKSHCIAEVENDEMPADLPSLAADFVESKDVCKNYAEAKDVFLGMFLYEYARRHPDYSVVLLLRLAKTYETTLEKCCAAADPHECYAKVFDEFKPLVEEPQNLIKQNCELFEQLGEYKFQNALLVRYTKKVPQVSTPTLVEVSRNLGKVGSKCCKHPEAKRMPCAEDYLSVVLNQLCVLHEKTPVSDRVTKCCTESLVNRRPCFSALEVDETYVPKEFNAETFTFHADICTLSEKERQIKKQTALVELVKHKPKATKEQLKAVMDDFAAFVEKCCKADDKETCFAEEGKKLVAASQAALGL

Albumin [33] = biological target: T1, Albumin; test: Binding affinity to human serum albumin assessed as unbound fraction after 4 hrs by LC-MS analysis; type: ADME; details: isolated protein
[34] = Lipophilicity, log D of the compound at pH 7.4 by HPLC analysis; type: physicochemical; details: buffer
[35] = Acute toxicity in Swiss mouse at 1 to 10 mg/kg, ip measured for 24 hrs; type: organism-based; details: in vivo
[36] = Toxicity in Swiss mouse assessed as effect on brain at 1 mg/kg, ip administered for 5 days measured measured on day 7 to day 30 post last dose by HES staining based microscopic analysis; type: organism-based; details: in vivo, 120 h
[37] = Toxicity in Swiss mouse assessed as effect on liver at 1 mg/kg, ip administered for 5 days measured measured on day 7 to day 30 post last dose by HES staining based microscopic analysis; type: organism-based; details: in vivo, 120 h
[38] = Toxicity in Swiss mouse assessed as effect on kidney at 1 mg/kg, ip administered for 5 days measured measured on day 7 to day 30 post last dose by HES staining based microscopic analysis; type: organism-based; details: in vivo, 120 h
[39] = Toxicity in Swiss mouse assessed as effect on spleen at 1 mg/kg, ip administered for 5 days measured measured on day 7 to day 30 post last dose by HES staining based microscopic analysis; type: organism-based; details: in vivo, 120 h
[40] = Toxicity in Swiss mouse assessed as effect on heart at 1 mg/kg, ip administered for 5 days measured measured on day 7 to day 30 post last dose by HES staining based microscopic analysis; type: organism-based; details: in vivo, 120 h
[41] = Toxicity in Swiss mouse assessed as effect on lungs at 1 mg/kg, ip administered for 5 days measured measured on day 7 to day 30 post last dose by HES staining based microscopic analysis; type: organism-based; details: in vivo, 120 h
[42] = Toxicity in Swiss mouse assessed as effect on adipose tissue at 1 mg/kg, ip administered for 5 days measured measured on day 7 to day 30 post last dose by HES staining based microscopic analysis; type: organism-based; details: in vivo, 120 h
[43] = Toxicity in Swiss mouse assessed as effect on muscles at 1 mg/kg, ip administered for 5 days measured measured on day 7 to day 30 post last dose by HES staining based microscopic analysis; type: organism-based; details: in vivo, 120 h
[44] = Toxicity in Swiss mouse assessed as effect on liver by measuring inflammatory cell infiltration at 10 mg/kg, ip administered for 5 days measured measured on day 7 to day 30 post last dose by HES staining based microscopic analysis; type: organism-based; details: in vivo, 120 h
[45] = Toxicity in Swiss mouse assessed as effect on skin by measuring hypodermic lymph node at 10 mg/kg, ip administered for 5 days measured measured on day 7 to day 30 post last dose by HES staining based microscopic analysis; type: organism-based; details: in vivo, 120 h
[46] = Toxicity in Swiss mouse assessed as fibrosis at injection site 10 mg/kg, ip administered for 5 days measured measured on day 7 to day 30 post last dose by HES staining based microscopic analysis; type: organism-based; details: in vivo, 120 h
[47] = Toxicity in Swiss mouse assessed as inflammation at injection site 10 mg/kg, ip administered for 5 days measured measured on day 7 to day 30 post last dose by HES staining based microscopic analysis; type: organism-based; details: in vivo, 120 h
[48] = Solubility of the compound in RPMI medium at >40 uM; type: physicochemical

O=[N+]([O-])c1c(CS(=O)(=O)c2ccccc2)nc2c([S+]([O-])c3ccc(Cl)cc3)cc(Cl)cn12 (stereo unspecified)
CC50 at 72 h [1]: > 12.5 µM
pIC50 (Leishmania donovani [2]): 5.89
pIC50 (Leishmania infantum [3]): 5.80
pIC50 [4]: 6.22
solubility [5]: Insoluble
Activity [6]: Non-Toxic
Activity [7]: Non-Toxic
Activity [8]: Non-Toxic
Activity [9]: Non-Toxic
Activity [10]: Non-Toxic
Activity [11]: Non-Toxic
Activity [12]: Non-Toxic
Activity [13]: Non-Toxic
Activity [14]: -0.61 V

Nc1c(CS(=O)(=O)c2ccccc2)nc2c(Sc3ccc(Cl)cc3)cc(Cl)cn12
CC50 at 72 h [1]: > 62.5 µM
pIC50 (Leishmania donovani [2]): 3.91
pIC50 (Leishmania infantum [3]): 4.50
pIC50 [4]: 4.97
solubility [15]: Insoluble

O=[N+]([O-])c1c(CS(=O)(=O)c2ccccc2)nc2c(S(=O)(=O)c3ccc(Cl)cc3)cc(Cl)cn12
CC50 at 72 h [1]: > 12.5 µM
pIC50 (Leishmania donovani [2]): 5.89
pIC50 (Leishmania infantum [3]): 5.43
pIC50 [4]: 6.00
solubility [5]: Insoluble
pIC50 (Leishmania donovani [16]): 6.22
pIC50 [17]: 7.10
pIC50 [18]: 6.15
Ratio IC50 (Leishmania donovani [19]): 8
Ratio IC50 (Leishmania donovani [20]): 8
Activity [14]: -0.59 V

O=[N+]([O-])c1c(CS(=O)(=O)c2ccccc2)nc2c(Sc3ccc(Cl)cc3)cc(Cl)cn12
pIC50 (Leishmania donovani [21]): 6.00
CC50 at 72 h [1]: > 100 µM
solubility [22]: Soluble
selectivity ratio [23]: > 100
pIC50 (Leishmania donovani [2]): 5.89 to 6.00
pIC50 (Leishmania infantum [3]): 5.77
pIC50 (Leishmania major [24]): 5.89
pIC50 (Leishmania major [25]): 5.68
Ratio IC50 (Leishmania donovani [26]): 3
Ratio IC50 (Leishmania infantum [27]): 2
pIC50 (Trichomonas vaginalis): 5.30 to 5.34
pIC50 (Plasmodium falciparum): 4.72
pIC50 [4]: 5.89
pIC50 (Trypanosoma cruzi): 5.66
CC50 at 72 h [28]: > 62.5 µM
solubility [29]: Insoluble
half-life [30]: 3 min
Drug metabolism [31]: Metabolite_Detected
Activity [6]: Non-Toxic
Activity [7]: Non-Toxic
Activity [8]: Non-Toxic
Activity [9]: Non-Toxic
Activity [10]: Non-Toxic
Activity [11]: Non-Toxic
Activity [12]: Non-Toxic
Activity [13]: Non-Toxic
Activity (HepG2): Non-Toxic
fraction unbound at 4 h (Albumin [32]): 0.0005
logFu (Albumin [33]): -3.28
logD [34]: 4.26
pIC50 (Leishmania donovani [16]): 6.59
pIC50 [17]: 7.48
pIC50 [18]: 6.52
Ratio IC50 (Leishmania donovani [19]): 8
Ratio IC50 (Leishmania donovani [20]): 8
Activity [14]: -0.63 V
Activity [35]: Non-Toxic
Activity [36]: Non-Toxic
Activity [37]: Non-Toxic
Activity [38]: Non-Toxic
Activity [39]: Non-Toxic
Activity [40]: Non-Toxic
Activity [41]: Non-Toxic
Activity [42]: Non-Toxic
Activity [43]: Non-Toxic
Activity [44]: Non-Toxic
Activity [45]: Non-Toxic
Activity [46]: Non-Toxic
Activity [47]: Non-Toxic

CCCCCCCCCCCCCCCCOP(=O)([O-])OCC[N+](C)(C)C [MILTEFOSINE]
CC50 at 72 h [28]: > 40 µM
solubility [48]: Insoluble
